Assay results reported in paper PMC9925730, “Controlled sequential in situ self-assembly and disassembly of a fluorogenic cisplatin prodrug for cancer theranostics” (Nature Communications, 2023).
“And” between values parts separate entries of the source, which are not always exact repeats. Identical values can stand only once.

Experiments:
ALP = experiment: Specificity of P-CyPt towards ALP (Trypsin, MMP-2, GGT, CTB, Caspase-3, ALP, ALP + Na3VO4); format: biochemical; conditions: for Normalized FL intensity at 710 nm, single replicate: individual replicates; for Normalized FL intensity at 710 nm, single replicate / Normalized FL intensity at 710 nm, mean: Supplementary Fig. 7b
HeLa MCTS = experiment: MCTS imaging and cytotoxicity (penetration, PI staining); format: cell-based, human; conditions: 10 μM 1 h, then 24 h
Protocol: Supplementary Figure 25. Flow cytometric analysis of HeLa cell death. (a) Gating strategy applied for flow cytometric analysis. (b) Representative flow cytometric analysis of HeLa cells by Annexin V-FITC/PI staining. HeLa cells were treated with PBS, CDDP, PtIVNPs or P-CyPt (20 μM) for 2 h, washed with cold PBS for three times, and then continued incubation in refresh blank DMEM medium for another 48 h. The cells were then stained with the Annexin V-FITC/PI kit, and analyzed by flow cytometry. One representative experiment out of two is shown.
Supplementary Figure 26. Evaluation of the penetration and cytotoxicity of PtIVNPs toward HeLa MCTS. MCTS were incubated with PtIVNPs (10 μM) for 1 h, then washed with PBS buffer for three times, followed by incubation for another 24 h.
The MCTs were then co-stained with PI. […]
(§1) μm. […] The fluorescence images of the MCTS were captured on a Leica TCS SP8 confocal laser scanning microscope, microscope (TCS SP8 STED 3X) with 10x/0.4 dry lens (Leica), and captured at RGB on a HyD detector (Leica Dmi8) under PI and Cy5.5 channels. […]
(§2) were sacrificed after 4 h. […] The fluorescence images of these organs and tumors were acquired with the IVIS Lumina XR III imaging system using a 660 nm excitation filter and a 750 ± 50 nm emission filter. […]

s.c. HeLa tumors [1] = experiment: PA imaging of s.c. HeLa tumors in vivo; set-up: species or system mice; conditions: i.v., 2 h post-injection
Protocol: (100 μM, in 200 μL saline). Whole body FL images of mice prior to (pre) and at 1 h, 2 h, 4 h, 8 h post injection of P-CyPt or […] acquired on the IVIS Lumina XR III imaging system, using a 660 nm excitation filter and a 750 ± 50 nm emission filter. Each experiment was conducted in three mice. The FL intensities were quantified by the region of interest (ROI) measurement using Living Image Software (4.5.2, PerkinElmer, MA, U.S.A). […] (500 μM, in 200 μL saline). The PA images of the s.c. HeLa tumors in mice prior to (pre), and at 1, 2, 4 h post injection were captured on the Vevo 2100 LAZR system (FUJIFILM VisualSonics), with excitation at 700 and 750 nm. The PA intensities were quantified by the equipped software.

s.c. HeLa tumors [2] = experiment: Ex vivo FL imaging of resected tumors and organs; format: in vivo, mice; conditions: 4 h post i.v. injection
Protocol: Supplementary Figure 27. Ex vivo FL imaging of tumors and main organs. (a) Representative ex vivo FL images (λex/em = 660/750 ± 50 nm) and (b) average FL intensities of tumors and main organs resected from P-CyPt- or PtIVNPs-treated HeLa […]
200 μL). After 4 h, the mice were sacrificed. Tumors (T) and main organs, including liver (L), heart (H), spleen (Sp), lung (Lu), kidney (K), stomach (St), and intestine (In) were resected, and the FL images were acquired on the IVIS spectrum imager. Values denote mean ± s.d. (n = 3 independent animals). Statistical difference was analyzed by Student’s two-sided t-test. Source data are provided as a Source Data file.
Supplementary Figure 28. FL imaging of resected tumor tissue slices. FL images of tumor tissue slices (10 μm thickness) resected from s.c. HeLa tumor-bearing mice at 4 h after i.v. injection of PBS (200 μL), PtIVNPs or P-CyPt (100 μM, 200 μL). Cell nuclei were co-stained with DAPI (blue). […]
as §1, §2

`CC1(C)C(/C=C/C2=C3Oc4cc(OP(=O)(O)O)c(Cl)cc4C=C3CCC2)=[N+](CCCNC(=O)[C@@H](Cc2ccccc2)NC(=O)[C@@H](Cc2ccccc2)NC(=O)CCC(=O)[O][Pt]([NH2])([NH2])([OH])([Cl])[Cl])c2ccccc21` [P-CyPt] was tested, and the “Normalized FL intensity at 710 nm, single replicate” value (ALP; Enzyme type: ALP+Na3VO4) was 1.0416 and 1.0656 and 1.1392, the “Normalized FL intensity at 710 nm, mean” value (ALP; Enzyme type: ALP+Na3VO4, mean of 3 replicates) was 1.082 and the “Normalized FL intensity at 710 nm, single replicate” value (ALP; Enzyme type: ALP+PBS) was 1.0305 and 1.3734 and 1.3861. The “Normalized FL intensity at 710 nm, mean” value (ALP; Enzyme type: ALP+PBS, mean of 3 replicates) was 1.263, the “Normalized FL intensity at 710 nm, single replicate” value (ALP; Enzyme type: ALP) was 7.7619 and 9.0065 and 9.1858 and the “Normalized FL intensity at 710 nm, mean” value (ALP; Enzyme type: ALP, mean of 3 replicates) was 8.651. For the same molecule, the “Normalized FL intensity at 710 nm, single replicate” value (ALP; Enzyme type: CTB) was 0.9991 and 1.017 and 1.1059, the “Normalized FL intensity at 710 nm, mean” value (ALP; Enzyme type: CTB, mean of 3 replicates) was 1.041 and the “Normalized FL intensity at 710 nm, single replicate” value (ALP; Enzyme type: GGT) was 0.8869 and 1.0719 and 1.0726. For the same molecule, the “Normalized FL intensity at 710 nm, mean” value (ALP; Enzyme type: GGT, mean of 3 replicates) was 1.010, the “Normalized FL intensity at 710 nm, single replicate” value (ALP; Enzyme type: MMP-2) was 0.9603 and 0.9824 and 1.1444 and the “Normalized FL intensity at 710 nm, mean” value (ALP; Enzyme type: MMP-2, mean of 3 replicates) was 1.029. The “Normalized FL intensity at 710 nm, single replicate” value (ALP; Enzyme type: Tris (buffer only)) was 0.9358 and 0.9007 and 1.1635, the “Normalized FL intensity at 710 nm, mean” value (ALP; Enzyme type: Tris (buffer only), mean of 3 replicates) was 1.000 and the “Normalized FL intensity at 710 nm, single replicate” value (ALP; Enzyme type: Trypsin) was 0.935 and 0.9815 and 1.0282. For the same molecule, the “Normalized FL intensity at 710 nm, mean” value (ALP; Enzyme type: Trypsin, mean of 3 replicates) was 0.982, the “NIR fluorescence signal of P-CyPt after incubation with enzyme (Supplementary Fig. 7, enzyme types), individual replicates” value (ALP; enzyme: Casepase-3, individual replicate values (n=3)) was 1.0789 and 1.0855 and 1.1465 and the “NIR fluorescence signal of P-CyPt after incubation with enzyme (Supplementary Fig. 7, enzyme types), mean” value (ALP; enzyme: Casepase-3, mean of 3 replicates) was 1.104. For the same molecule, the “penetration / cell-kill depth in MCTS” value (HeLa MCTS) was ~ 200 μm, the “tumor PA intensity at 700 nm higher than with Pt^IVNPs” value (s.c. HeLa tumors [1]) was ~3.4 fold and the “tumor PA intensity at 750 nm higher than with Pt^IVNPs” value (s.c. HeLa tumors [1]) was ~4.3 fold. The “ex vivo tumor FL intensity higher than Pt^IVNPs-treated tumors” value (s.c. HeLa tumors [2]) was ~ 3.2 fold.
